# Measurements published in patent publication US10357484B2, “Heterocyclic compound” (Takeda Pharmaceutical Company Limited, priority 2015, dated 2019).
# Experiments:
# Assay type in all cases: biochemical
# [1] = molecular target: T1, HDAC9 enzyme (Homo sapiens, UniProt Q9UKV0); assay: HDAC9 enzyme inhibitory assay (HDAC-Glo class IIa); conditions: 1 μM test compound; wells without enzyme = 100% inhibition; read-out: HDAC9 inhibitory rate (%) (1 μM)
# T1 construct: transducing full length HDAC9 gene into Sf-9 insect cells; made in house; host or cells: Sf-9 insect cells
# Experimental: HDAC9 Enzyme Inhibitory Assay
# Enzyme was prepared by transducing full length HDAC9 gene into Sf-9 insect cells and purifying by Ni-NTA affinity column, and HDAC9 enzyme inhibitory activity was evaluated. Enzymes were used after preserved at −70° C. HDAC9 enzyme inhibitory activity of the test compound was measured using HDAC-Glo class IIa (Promega) according to the following experimental method. The test compound diluted with assay buffer (24 mM Tris-HCl (pH 7.5), 1 mM MgCl2, 0.35 mM KCl, 135 mM NaCl, 0.6 mM Glutathione, 0.01% Tween-20) was added to a 384-well plate by each 2 μL. Then, HDAC9 enzyme solution diluted with assay buffer was added thereto by each 2 μL, and the plate was incubated at room temperature for 60 min. After incubated, HDAC substrate-Developer solution prepared according to Promega protocol was added to the 384-well plate by each 4 μL, and the enzyme reaction was started. After reacting at room temperature for 20 min, luminescence level was measured using plate reader Envision (PerkinElmer). The inhibitory activity of each compound was calculated as a relative activity value when luminescence level in wells without enzyme is considered as 100% inhibition.
# [2] = molecular target: T2, HDAC6 enzyme (Homo sapiens, UniProt Q9UBN7); assay: HDAC6 enzyme inhibitory assay (HDAC-Glo I/II Assay kit); conditions: 1 μM test compound; wells without enzyme = 100% inhibition; read-out: HDAC6 inhibitory rate (%) (1 μM)
# T2 construct: transducing full length HDAC1 and HDAC6 genes into Sf-9 insect cells; GST; purchased SignalChem; host or cells: Sf-9 insect cells
# T2 sequence (Q9UBN7 1-1215): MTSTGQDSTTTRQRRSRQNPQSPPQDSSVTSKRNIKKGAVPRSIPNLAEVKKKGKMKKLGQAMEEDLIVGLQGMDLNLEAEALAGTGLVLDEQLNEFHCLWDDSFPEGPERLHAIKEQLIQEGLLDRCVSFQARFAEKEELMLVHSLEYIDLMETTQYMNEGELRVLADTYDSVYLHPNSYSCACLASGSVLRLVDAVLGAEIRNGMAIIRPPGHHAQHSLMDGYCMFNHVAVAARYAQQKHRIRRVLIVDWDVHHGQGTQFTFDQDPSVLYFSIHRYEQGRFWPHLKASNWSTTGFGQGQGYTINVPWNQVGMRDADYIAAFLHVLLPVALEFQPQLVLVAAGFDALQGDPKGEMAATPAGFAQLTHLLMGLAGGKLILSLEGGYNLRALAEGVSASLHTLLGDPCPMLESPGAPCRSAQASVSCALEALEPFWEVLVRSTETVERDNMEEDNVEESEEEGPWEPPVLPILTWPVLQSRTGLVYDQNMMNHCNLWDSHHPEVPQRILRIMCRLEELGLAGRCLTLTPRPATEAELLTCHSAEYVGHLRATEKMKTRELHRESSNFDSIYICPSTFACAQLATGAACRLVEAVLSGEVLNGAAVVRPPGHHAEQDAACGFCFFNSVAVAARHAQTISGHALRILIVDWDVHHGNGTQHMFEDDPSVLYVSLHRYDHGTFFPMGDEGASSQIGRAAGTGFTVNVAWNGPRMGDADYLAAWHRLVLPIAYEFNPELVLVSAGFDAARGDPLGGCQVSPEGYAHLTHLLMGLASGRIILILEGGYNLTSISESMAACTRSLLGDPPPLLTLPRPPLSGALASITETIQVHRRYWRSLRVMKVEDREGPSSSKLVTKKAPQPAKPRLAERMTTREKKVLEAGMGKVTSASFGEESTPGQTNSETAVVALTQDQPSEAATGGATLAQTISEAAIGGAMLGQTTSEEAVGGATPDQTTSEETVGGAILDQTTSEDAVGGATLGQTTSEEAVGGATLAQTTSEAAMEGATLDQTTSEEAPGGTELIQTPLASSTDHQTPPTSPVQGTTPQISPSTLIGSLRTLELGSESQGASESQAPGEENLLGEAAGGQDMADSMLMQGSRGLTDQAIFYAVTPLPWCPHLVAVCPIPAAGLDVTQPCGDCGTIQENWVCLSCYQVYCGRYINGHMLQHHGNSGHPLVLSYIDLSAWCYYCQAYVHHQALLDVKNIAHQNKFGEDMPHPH
# Experimental: (§1) HDAC1/6 Enzyme Inhibitory Assay
# (§2) HDAC1 enzyme and HDAC6 enzyme each prepared by transducing full length HDAC1 and HDAC6 genes into Sf-9 insect cells and purifying by GST affinity column were purchased from SignalChem. Using these enzymes, HDAC1 and/or HDAC6 enzyme inhibitory activities of the compound of the present invention were evaluated. Enzymes were used after preserved at −70° C. HDAC1 or HDAC6 enzyme inhibitory activity of the compound of the present invention was measured using HDAC-Glo™ I/II Assay kit (Promega) according to the following experimental method. The test compound diluted with assay buffer (24 mM Tris-HCl (pH 7.5), 1 mM MgCl2, 0.35 mM KCl, 135 mM NaCl, 0.6 mM Glutathione, 0.01% Tween-20) was added to a 384-well plate by each 2 μL. Then, HDAC1 or HDAC6 enzyme solution diluted with assay buffer was added thereto by each 4 μL, and the plate was incubated at room temperature for 60 min. After incubated, HDAC substrate-Developer solution prepared according to Promega protocol attached to the assay kit was added to the 384-well plate by each 2 μL, and the enzyme reaction was started. After reacting at room temperature for 20 min, luminescence level was measured using plate reader Envision (PerkinElmer). The inhibitory activity of each compound was calculated as a relative activity value when luminescence level in wells without enzyme is considered as 100% inhibition.
# [3] = molecular target: T3, HDAC1 enzyme (Homo sapiens, UniProt Q13547); assay: HDAC1 enzyme inhibitory assay (HDAC-Glo I/II Assay kit); conditions: 1 μM test compound; wells without enzyme = 100% inhibition; read-out: HDAC1 inhibitory rate (%) (1 μM)
# T3 construct: transducing full length HDAC1 and HDAC6 genes into Sf-9 insect cells; GST; purchased SignalChem; host or cells: Sf-9 insect cells
# Experimental: as §1, §2
# T1 sequence (Q9UKV0 whole entry, species assumed): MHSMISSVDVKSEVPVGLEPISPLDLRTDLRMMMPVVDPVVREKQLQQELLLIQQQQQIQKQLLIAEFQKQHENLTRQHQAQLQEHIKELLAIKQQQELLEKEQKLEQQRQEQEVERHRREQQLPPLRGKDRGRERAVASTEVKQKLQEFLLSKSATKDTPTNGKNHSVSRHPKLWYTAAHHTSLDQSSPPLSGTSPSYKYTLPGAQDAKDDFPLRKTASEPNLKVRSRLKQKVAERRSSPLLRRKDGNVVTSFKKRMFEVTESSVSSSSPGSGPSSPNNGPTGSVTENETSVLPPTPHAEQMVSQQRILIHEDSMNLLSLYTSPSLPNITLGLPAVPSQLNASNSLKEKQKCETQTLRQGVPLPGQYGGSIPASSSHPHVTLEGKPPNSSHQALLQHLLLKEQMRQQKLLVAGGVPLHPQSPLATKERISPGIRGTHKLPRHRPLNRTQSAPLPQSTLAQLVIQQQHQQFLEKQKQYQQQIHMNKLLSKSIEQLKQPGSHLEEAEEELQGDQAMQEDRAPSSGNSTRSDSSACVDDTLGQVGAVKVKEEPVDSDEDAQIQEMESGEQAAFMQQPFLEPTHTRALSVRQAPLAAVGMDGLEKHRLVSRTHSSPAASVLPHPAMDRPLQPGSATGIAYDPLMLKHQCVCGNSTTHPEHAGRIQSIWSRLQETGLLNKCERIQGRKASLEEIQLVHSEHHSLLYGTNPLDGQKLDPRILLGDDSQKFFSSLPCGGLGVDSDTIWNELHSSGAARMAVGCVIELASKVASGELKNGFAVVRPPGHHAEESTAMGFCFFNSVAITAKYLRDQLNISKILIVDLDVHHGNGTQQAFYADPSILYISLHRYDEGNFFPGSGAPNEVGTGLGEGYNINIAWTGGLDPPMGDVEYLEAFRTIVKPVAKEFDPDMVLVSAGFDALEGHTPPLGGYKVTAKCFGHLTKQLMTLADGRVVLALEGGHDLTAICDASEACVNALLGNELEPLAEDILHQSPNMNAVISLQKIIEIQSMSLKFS
# T3 sequence (Q13547 whole entry): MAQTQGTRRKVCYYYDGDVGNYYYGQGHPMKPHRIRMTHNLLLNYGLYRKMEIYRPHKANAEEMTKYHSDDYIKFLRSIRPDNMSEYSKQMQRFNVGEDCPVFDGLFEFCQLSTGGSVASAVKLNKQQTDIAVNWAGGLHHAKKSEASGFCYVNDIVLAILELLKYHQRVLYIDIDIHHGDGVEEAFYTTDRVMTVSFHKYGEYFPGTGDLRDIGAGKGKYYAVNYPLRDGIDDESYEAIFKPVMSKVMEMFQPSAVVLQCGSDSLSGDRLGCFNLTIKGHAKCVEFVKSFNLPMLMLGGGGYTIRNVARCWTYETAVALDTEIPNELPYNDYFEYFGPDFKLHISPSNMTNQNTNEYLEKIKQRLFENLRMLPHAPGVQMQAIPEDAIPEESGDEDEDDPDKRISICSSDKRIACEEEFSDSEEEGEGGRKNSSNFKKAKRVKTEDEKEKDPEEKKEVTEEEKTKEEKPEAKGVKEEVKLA
SMILES,inhibition at 1 µM [1],inhibition at 1 µM [2],inhibition at 1 µM [3]
"O=C1c2cc(-c3noc(C(F)(F)F)n3)cnc2CN1Cc1ccccc1 [Example 1, 6-benzyl-3-(5-(trifluoromethyl)-1,2,4-oxadiazol-3-yl)-6,7-dihydro-5H-pyrrolo[3,4-b]pyridin-5-one]",94%,101%,61%
"CC(c1ccccc1)N1Cc2ncc(-c3noc(C(F)(F)F)n3)cc2C1=O (stereo not drawn) [Example 2, 6-(1-phenylethyl)-3-(5-(trifluoromethyl)-1,2,4-oxadiazol-3-yl)-6,7-dihydro-5H-pyrrolo[3,4-b]pyridin-5-one]",92%,100%,57%
"CC(C)(c1ccccc1)N1Cc2ncc(-c3noc(C(F)(F)F)n3)cc2C1=O [Example 3, 6-(2-phenylpropan-2-yl)-3-(5-(trifluoromethyl)-1,2,4-oxadiazol-3-yl)-6,7-dihydro-5H-pyrrolo[3,4-b]pyridin-5-one]",89%,98%,36%
"O=C1c2cc(-c3noc(C(F)(F)F)n3)cnc2CN1Cc1cccnc1 [Example 4, 6-(pyridin-3-ylmethyl)-3-(5-(trifluoromethyl)-1,2,4-oxadiazol-3-yl)-6,7-dihydro-5H-pyrrolo[3,4-b]pyridin-5-one]",93%,93%,43%
"CC(c1cccnc1)N1Cc2ncc(-c3noc(C(F)(F)F)n3)cc2C1=O (stereo not drawn) [Example 5, 6-(1-(pyridin-3-yl)ethyl)-3-(5-(trifluoromethyl)-1,2,4-oxadiazol-3-yl)-6,7-dihydro-5H-pyrrolo[3,4-b]pyridin-5-one]",93%,97%,43%
"O=C1c2cc(-c3noc(C(F)(F)F)n3)ccc2CN1Cc1ccccc1 [Example 6, 2-benzyl-6-(5-(trifluoromethyl)-1,2,4-oxadiazol-3-yl)isoindolin-1-one]",82%,102%,24%
"COc1cccc(CN2Cc3ccc(-c4noc(C(F)(F)F)n4)cc3C2=O)c1 [Example 9, 2-(3-methoxybenzyl)-6-(5-(trifluoromethyl)-1,2,4-oxadiazol-3-yl)isoindolin-1-one]",81%,98%,31%
"O=C1c2cc(-c3noc(C(F)(F)F)n3)ccc2CN1Cc1cccc(Oc2ccccc2)c1 [Example 10, 2-(3-phenoxybenzyl)-6-(5-(trifluoromethyl)-1,2,4-oxadiazol-3-yl)isoindolin-1-one]",52%,28%,15%
"O=C1c2cc(-c3noc(C(F)(F)F)n3)ccc2CN1Cc1ccccc1Oc1ccccc1 [Example 11, 2-(2-phenoxybenzyl)-6-(5-(trifluoromethyl)-1,2,4-oxadiazol-3-yl)isoindolin-1-one]",5%,68%,4%
"COc1ccccc1CN1Cc2ccc(-c3noc(C(F)(F)F)n3)cc2C1=O [Example 12, 2-(2-methoxybenzyl)-6-(5-(trifluoromethyl)-1,2,4-oxadiazol-3-yl)isoindolin-1-one]",76%,96%,23%

# The next lines start with the values.
inhibition at 1 µM [1],inhibition at 1 µM [2],inhibition at 1 µM [3],SMILES
78%,95%,17%,"C[C@H](c1ccccc1)N1Cc2ccc(-c3noc(C(F)(F)F)n3)cc2C1=O [Example 7, 2-((1R)-1-phenylethyl)-6-(5-(trifluoromethyl)-1,2,4-oxadiazol-3-yl)isoindolin-1-one]"
87%,99%,19%,"C[C@@H](c1ccccc1)N1Cc2ccc(-c3noc(C(F)(F)F)n3)cc2C1=O [Example 8, 2-((1S)-1-phenylethyl)-6-(5-(trifluoromethyl)-1,2,4-oxadiazol-3-yl)isoindolin-1-one]"
79%,90%,14%,"C[C@@H](c1ccc(F)cc1)N1Cc2ccc(-c3noc(C(F)(F)F)n3)cc2C1=O [Example 13, 2-((1S)-1-(4-fluorophenyl)ethyl)-6-(5-(trifluoromethyl)-1,2,4-oxadiazol-3-yl)isoindolin-1-one]"
76%,88%,9%,"C[C@@H](c1ccc(Cl)cc1)N1Cc2ccc(-c3noc(C(F)(F)F)n3)cc2C1=O [Example 14, 2-((1S)-1-(4-chlorophenyl)ethyl)-6-(5-(trifluoromethyl)-1,2,4-oxadiazol-3-yl)isoindolin-1-one]"
79%,95%,15%,"C[C@@H](c1ccccc1F)N1Cc2ccc(-c3noc(C(F)(F)F)n3)cc2C1=O [Example 15, 2-((1S)-1-(2-fluorophenyl)ethyl)-6-(5-(trifluoromethy)-1,2,4-oxadiazol-3-yl)isoindolin-1-one]"
85%,95%,20%,"C[C@@H](c1cccc(F)c1)N1Cc2ccc(-c3noc(C(F)(F)F)n3)cc2C1=O [Example 16, 2-((1S)-1-(3-fluorophenyl)ethyl)-6-(5-(trifluoromethyl)-1,2,4-oxadiazol-3-yl)isoindolin-1-one]"
74%,95%,12%,"C[C@@H](c1ccc(F)cc1F)N1Cc2ccc(-c3noc(C(F)(F)F)n3)cc2C1=O [Example 17, 2-((1S)-1-(2,4-difluorophenyl)ethyl)-6-(5-(trifluoromethyl)-1,2,4-oxadiazol-3-yl)isoindolin-1-one]"
89%,91%,27%,"COc1ccc([C@H](C)N2Cc3ccc(-c4noc(C(F)(F)F)n4)cc3C2=O)cc1 [Example 18, 2-((1S)-1-(4-methoxyphenyl)ethyl)-6-(5-(trifluoromethyl)-1,2,4-oxadiazol-3-yl)isoindolin-1-one]"
87%,99%,29%,"COc1cccc([C@H](C)N2Cc3ccc(-c4noc(C(F)(F)F)n4)cc3C2=O)c1 [Example 19, 2-((1S)-1-(3-methoxyphenyl)ethyl)-6-(5-(trifluoromethyl)-1,2,4-oxadiazol-3-yl)isoindolin-1-one]"
